Results on nine molecules are retold here after ChEMBL document CHEMBL1135256, “Benzimidazole-4,7-diones as inhibitors of protozoal (Toxoplasma gondii) purine nucleoside phosphorylase” (Bioorg Med Chem Lett, 2002).

Assay [1] has as its system Purine nucleoside phosphorylase (Toxoplasma gondii). The assay is described as follows: Inhibition of Toxoplasma gondii purine nucleoside phosphorylase from virulent strain RH at 1 mM.
The test system is the same in assay [2]. The assay is described as follows: Inhibition of Toxoplasma gondii purine nucleoside phosphorylase from virulent strain RH at 4 mM.
Assay [3] shares this test system. The assay is described as follows: Inhibition of Toxoplasma gondii purine nucleoside phosphorylase from cystic strain ME 49 at 4 mM.
The test system is the same in assay [4]. The assay is described as follows: Inhibition of Toxoplasma gondii purine nucleoside phosphorylase from cystic strain ME 49 at 1 mM.
Assay [5] addresses T1, Purine nucleoside phosphorylase (Homo sapiens) (UniProt P00491).
T1 sequence (whole entry): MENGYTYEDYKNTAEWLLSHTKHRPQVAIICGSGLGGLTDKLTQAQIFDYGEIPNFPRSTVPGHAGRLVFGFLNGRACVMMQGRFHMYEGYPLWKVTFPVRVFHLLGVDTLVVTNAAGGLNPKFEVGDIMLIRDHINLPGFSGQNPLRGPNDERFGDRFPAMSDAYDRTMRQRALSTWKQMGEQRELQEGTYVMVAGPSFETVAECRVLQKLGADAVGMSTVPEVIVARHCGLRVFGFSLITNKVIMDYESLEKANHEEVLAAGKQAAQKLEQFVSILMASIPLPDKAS
The assay is described as follows: Compound was evaluated for its ability to inhibit in vitro Toxoplasma gondii purine nucleoside phosphorylase from cystic strain ME 49 at a concentration of 4 mM.

One may read the inhibition as how much of the control response was suppressed. Low readings indicate little suppression, high ones strong suppression. Regarding `O=C1C=CC(=O)c2[nH]cnc21`, the inhibition stood at 47% in assay [1], 68% in assay [2], 71% in assay [3] and 52% in assay [4].
As to `O=C1C=CC(=O)c2c1ncn2Cc1ccc(F)cc1`, the inhibition in assay [1] is 80%; in assay [2], 88%; in assay [5], 100%; in assay [4], 56%.
For `Cn1cnc2c1C(=O)C=CC2=O`, the inhibition in assay [1] is 55%; in assay [2], 85%; in assay [3] it was 82%; in assay [4], 31%.
As for `O=C1C=CC(=O)c2c1ncn2Cc1ccccc1F`, the inhibition in assay [1] turned out to be 70%; in assay [2] it was 87%; in assay [3], 89%; in assay [4], 62%.
In the same order, the values of `O=C1C=CC(=O)c2c1ncn2Cc1cccc(F)c1` are 65%, 100%, 100% and 60%.
The corresponding values for `Cc1nc2c(n1Cc1ccccc1)C(=O)C=CC2=O` are 54%, 82%, 92% and 66%.
In the same order, the values of `O=c1[nH]cnc2c1cnn2[C@@H]1O[C@H](CO)[C@@H](O)[C@H]1O` are 8%, 28%, 22% and 11%.
For the molecule `O=C1C=CC(=O)c2c1nc(Cc1ccccc1)n2Cc1ccccc1`, the inhibition is 65% in assay [1], 80% in assay [2], 78% in assay [3] and 61% in assay [4].
In the case of `CCCCn1cnc2c1C(=O)C=CC2=O`, the inhibition is 45% in assay [1], 68% in assay [2], 65% in assay [3] and 53% in assay [4].
